Assay results from patent publication US20260083865A1, “PROSTATE SPECIFIC MEMBRANE ANTIGEN (PSMA) LIGANDS AND USE THEREOF” (priority 2022, published 2026).
Numbered stars: 1 amine (or outer) side, 2 acyl side, 3 side chain; on linkers, the order of the positions; unused ones are H or OH. Bridge positions count the residues as written; N and C are the ends. Square brackets hold non-standard residues; d marks the D form. Peptide text beside a SMILES is read from it. * marks the point of attachment. X3 = O=C(O)CN1CCN(CC(=O)O)CCN(CC(=O)NCCCOCCOCCOCCCN*)CCN(CC(=O)O)CC1; DOTA = O=C(O)CN1CCN(CC(=O)O)CCN(CC(=O)*)CCN(CC(=O)O)CC1; Phe(3-Cl) = N[C@@H](Cc1cccc(Cl)c1)C(=O)O; Phe(4-Cl) = N[C@@H](Cc1ccc(Cl)cc1)C(=O)O; Ethylenediamine = C(CN[*:2])N[*:1]; X1 = O=C(CC1CCN([*:1])CC1)[*:2]; Lys(Me) = CNCCCC[C@H](N)C(=O)O; Suc = O=C(CCC(=O)[*:2])[*:1]; Tle = CC(C)(C)[C@H](N)C(=O)O; 4Abz = Nc1ccc(C(=O)O)cc1; Nle = CCCC[C@H](N)C(=O)O; Aib = CC(C)(N)C(=O)O; CO = O=C([*:1])[*:2]; NHBu = CCCCN*

Assays:
[1] = target: T1, PSMA-expressing C4-2 cells (Homo sapiens, UniProt Q04609); assay: FACS binding assay (competition with 50 nM PSM-0183); settings: pIC50 category of FACS binding, C4-2 cells; read-out: pIC50 [C4-2] CAT (converted)
T1 construct: PSMA-expressing C4-2 cells (ATCC, Cat. No. CRL-3314) were cultured in RPMI-1640; host or cells: C4-2 cells
T1 sequence (Q04609 whole entry): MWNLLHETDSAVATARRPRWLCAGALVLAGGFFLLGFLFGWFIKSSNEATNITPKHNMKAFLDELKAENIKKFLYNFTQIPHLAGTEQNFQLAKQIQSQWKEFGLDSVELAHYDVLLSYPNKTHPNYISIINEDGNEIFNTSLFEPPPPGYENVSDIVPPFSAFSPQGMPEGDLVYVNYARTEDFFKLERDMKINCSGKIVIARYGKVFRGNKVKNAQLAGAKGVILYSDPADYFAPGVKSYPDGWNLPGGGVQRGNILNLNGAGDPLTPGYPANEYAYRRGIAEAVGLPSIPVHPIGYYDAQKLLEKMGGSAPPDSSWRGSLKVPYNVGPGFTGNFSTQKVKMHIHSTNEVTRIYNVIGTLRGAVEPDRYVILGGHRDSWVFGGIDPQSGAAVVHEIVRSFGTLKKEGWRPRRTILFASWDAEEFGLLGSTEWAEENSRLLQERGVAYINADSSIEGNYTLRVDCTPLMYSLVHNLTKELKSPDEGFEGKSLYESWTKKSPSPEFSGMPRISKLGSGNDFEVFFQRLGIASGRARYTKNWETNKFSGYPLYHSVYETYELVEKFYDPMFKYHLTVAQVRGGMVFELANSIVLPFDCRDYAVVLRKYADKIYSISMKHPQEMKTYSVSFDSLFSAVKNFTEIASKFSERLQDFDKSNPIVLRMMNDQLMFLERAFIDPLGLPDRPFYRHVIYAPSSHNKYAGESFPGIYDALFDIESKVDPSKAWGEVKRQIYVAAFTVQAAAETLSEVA
How it was run: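 C4-2 cells were incubated 1 h at 4 °C with 50 nM AF488-labelled peptide PSM-0183 plus increasing test compound concentrations, then washed twice in ice-cold buffer. Median fluorescence in the AF488 channel was read by flow cytometry. IC50/pIC50 was derived by 4PL fitting of MFI versus concentration.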

[2] = target: T2, Fc-fusion protein of human PSMA (hPSMA-Fc) (Homo sapiens, UniProt Q04609); assay: Surface plasmon resonance assay (Biacore T200, single cycle kinetic); format: binding; settings: pKD category for PSMA SPR activity assay, hPSMA-Fc, 25° C.; read-out: pKD CAT (converted)
T2 construct: purchased Acro Biosystems PSA-H5264
T2 sequence (Q04609 44-750 limits assumed): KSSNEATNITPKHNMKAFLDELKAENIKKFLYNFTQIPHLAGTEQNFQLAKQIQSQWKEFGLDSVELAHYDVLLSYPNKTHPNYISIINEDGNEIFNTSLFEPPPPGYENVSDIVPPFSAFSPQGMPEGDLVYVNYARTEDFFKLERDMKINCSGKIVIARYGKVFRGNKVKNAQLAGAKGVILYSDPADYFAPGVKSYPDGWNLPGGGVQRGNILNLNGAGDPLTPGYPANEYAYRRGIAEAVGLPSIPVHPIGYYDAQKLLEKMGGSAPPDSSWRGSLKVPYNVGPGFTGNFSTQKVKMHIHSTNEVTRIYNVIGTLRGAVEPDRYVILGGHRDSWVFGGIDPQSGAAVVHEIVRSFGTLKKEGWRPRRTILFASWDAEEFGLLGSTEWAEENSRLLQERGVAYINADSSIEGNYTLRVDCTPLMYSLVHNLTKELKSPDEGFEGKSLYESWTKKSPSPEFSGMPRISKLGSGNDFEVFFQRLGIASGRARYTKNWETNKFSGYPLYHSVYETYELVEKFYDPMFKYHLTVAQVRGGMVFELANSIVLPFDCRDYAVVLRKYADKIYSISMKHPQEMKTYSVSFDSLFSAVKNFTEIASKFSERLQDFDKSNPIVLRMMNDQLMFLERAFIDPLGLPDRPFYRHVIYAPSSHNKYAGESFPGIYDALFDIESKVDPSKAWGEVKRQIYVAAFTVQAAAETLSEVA
How it was run: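 hPSMA-Fc was captured (~1000 RU) on an Fc-binding-peptide CM5 chip, and compounds were run in single cycle kinetic mode at 25° C in HBST with 0.1% DMSO. Double-blank-corrected sensorgrams were fitted to a 1:1 Langmuir model to give KD, reported as pKD.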

IC50 [1] [nM]	Kd [2] [nM]	SMILES
200 to 1260	< 12.6	CC(=O)NCCCC[C@@H]1NC(=O)[C@@H](NC(=O)[C@H](Cc2ccc(Cl)cc2)NC(=O)C(C)(C)NC(=O)[C@@H](NC(=O)CC2CCN(C(=O)CN3CCN(CC(=O)O)CCN(CC(=O)O)CCN(CC(=O)O)CC3)CC2)[C@@H](C)O)CSSC[C@@H](C(=O)N[C@H](C(=O)N[C@H](C(N)=O)[C@@H](C)O)C(C)(C)C)NC(=O)[C@H](CC(N)=O)NC(=O)C(C)(C)NC(=O)[C@H](CCCNC(=N)N)NC1=O [PSM-0466, DOTA-Cmp-Thr-Aib-Pcf-[Cys-Lys(Ac)-Arg-Aib-Asn-Cys]-Tle-Thr-NH2] ({DOTA}-[X1]T[Aib][Phe(4-Cl)]CK(Ac)R[Aib]NC[Tle]T-NH2; disulfide 5-10)
< 200	12.6 to 126	CCCC[C@H](NC(=O)[C@@H]1CSSC[C@H](NC(=O)[C@H](Cc2ccccc2)NC(=O)[C@H](C)NC(=O)[C@H](CO)NC(C)=O)C(=O)N[C@@H](CCCCN)C(=O)N[C@@H](CCCNC(=N)N)C(=O)N[C@@H](C)C(=O)N[C@@H](CC(N)=O)C(=O)N1)C(=O)N[C@H](C(=O)N[C@@H](CC(=O)O)C(N)=O)[C@@H](C)O [PSM-0469, Ac-Ser-Ala-Phe-[Cys-Lys-Arg-Ala-Asn-Cys]-Nle-Thr-Asp-NH2] (Ac-SAFCKRANC[Nle]TD-NH2; disulfide 4-9)
< 200	< 12.6	CCCCNC(=O)N[C@H](C(=O)NC(C)(C)C(=O)N[C@@H](Cc1cccc(Cl)c1)C(=O)N[C@H]1CSSC[C@@H](C(=O)N[C@H](C(=O)N[C@H](C(=O)N2CCC(CC(=O)N[C@H](CCCCNC(=O)CN3CCN(CC(=O)O)CCN(CC(=O)O)CCN(CC(=O)O)CC3)C(N)=O)CC2)[C@@H](C)O)C(C)(C)C)NC(=O)[C@H](CC(N)=O)NC(=O)C(C)(C)NC(=O)[C@H](CCCNC(=N)N)NC(=O)[C@H](CCCCN)NC1=O)[C@@H](C)O [PSM-0470, nBuCAyl-Thr-Aib-Mcf-[Cys-Lys-Arg-Aib-Asn-Cys]-Tle-Thr-Cmp-lys(DOTA)-NH2] ({NHBu-CO}-T[Aib][Phe(3-Cl)]CKR[Aib]NC[Tle]T[X1][dK](DOTA)-NH2; disulfide 4-9)
< 200	< 12.6	CNCCCC[C@@H]1NC(=O)[C@@H](NC(=O)[C@H](Cc2ccc(Cl)cc2)NC(=O)C(C)(C)NC(C)=O)CSSC[C@@H](C(=O)N[C@H](C(=O)NCCNC(=O)CN2CCN(CC(=O)O)CCN(CC(=O)O)CCN(CC(=O)O)CC2)C(C)(C)C)NC(=O)[C@H](CC(N)=O)NC(=O)C(C)(C)NC(=O)[C@H](CCCNC(=N)N)NC1=O [PSM-0472, Ac-Aib-Pcf-[Cys-Lys(Me)-Arg-Aib-Asn-Cys]-Tle-en-DOTA] (Ac-[Aib][Phe(4-Cl)]C[Lys(Me)]R[Aib]NC[Tle]-{Ethylenediamine-DOTA}; disulfide 3-8)
1260 to 3160	> 501	CCCC[C@H](NC(=O)[C@@H]1CSSC[C@H](NC(=O)[C@H](Cc2ccccc2)NC(=O)[C@H](C)NC(=O)[C@@H](NC(C)=O)[C@@H](C)O)C(=O)N[C@@H](CCCCN)C(=O)N[C@@H](CCCNC(=N)N)C(=O)N[C@H](C)C(=O)N[C@@H](CC(N)=O)C(=O)N1)C(=O)N[C@H](C(=O)N[C@@H](CC(=O)O)C(N)=O)[C@@H](C)O [PSM-0474, Ac-Thr-Ala-Phe-[Cys-Lys-Arg-ala-Asn-Cys]-Nle-Thr-Asp-NH2]
1260 to 3160	> 501	CCCC[C@H](NC(=O)[C@@H]1CSSC[C@H](NC(=O)[C@H](Cc2ccccc2)NC(=O)[C@H](C)NC(=O)[C@@H](NC(C)=O)[C@@H](C)O)C(=O)N[C@@H](C)C(=O)N[C@@H](CCCNC(=N)N)C(=O)N[C@@H](C)C(=O)N[C@@H](CC(N)=O)C(=O)N1)C(=O)N[C@H](C(=O)N[C@@H](CC(=O)O)C(N)=O)[C@@H](C)O [PSM-0475, Ac-Thr-Ala-Phe-[Cys-Ala-Arg-Ala-Ass-Cys]-Nle-Thr-Asp-NH2] (Ac-TAFCARANC[Nle]TD-NH2; disulfide 4-9)
200 to 1260	126 to 501	CCCC[C@H](NC(=O)[C@@H]1CSSC[C@H](NC(=O)[C@H](Cc2ccccc2)NC(=O)[C@H](C)NC(=O)[C@@H](NC(C)=O)[C@@H](C)O)C(=O)N[C@@H](CCCCN)C(=O)N[C@@H](CCCNC(=N)N)C(=O)N[C@@H](C)C(=O)N[C@@H](CC(N)=O)C(=O)N1)C(=O)N[C@@H](C)C(=O)N[C@@H](CC(=O)O)C(N)=O [PSM-0476, Ac-Thr-Als-Phe-[Cys-Lys-Arg-Ala-Asn-Cys]-Nle-Als-Asp-NH2] (Ac-TAFCKRANC[Nle]AD-NH2; disulfide 4-9)
< 200	< 12.6	CC(=O)N[C@H](C(=O)NC(C)(C)C(=O)N[C@@H](Cc1ccccc1)C(=O)N[C@H]1CSSC[C@@H](C(=O)N[C@H](C(=O)NCC(N)=O)C(C)(C)C)NC(=O)[C@H](CC(N)=O)NC(=O)C(C)(C)NC(=O)[C@H](CCCNC(=N)N)NC(=O)[C@H](CCCCN)NC1=O)[C@@H](C)O [PSM-0477, Ac-Thr-Aib-Phe-[Cys-Lys-Arg-Aib-Asn-Cys]-Tle-Gly-NH2] (Ac-T[Aib]FCKR[Aib]NC[Tle]G-NH2; disulfide 4-9)
< 200	< 12.6	CC(=O)N[C@H](C(=O)NC(C)(C)C(=O)N[C@@H](Cc1ccccc1)C(=O)N[C@H]1CSSC[C@@H](C(=O)N[C@H](C(=O)N[C@H](C(N)=O)[C@@H](C)O)C(C)(C)C)NC(=O)[C@H](CC(=O)O)NC(=O)C(C)(C)NC(=O)[C@H](CCCNC(=N)N)NC(=O)[C@H](CCCCN)NC1=O)[C@@H](C)O [PSM-0478, Ac-Thr-Aib-Phe-[Cys-Lys-Arg-Aib-Asp-Cys]-Tle-Thr-NH2] (Ac-T[Aib]FCKR[Aib]DC[Tle]T-NH2; disulfide 4-9)
< 200	< 12.6	CC(=O)N[C@H](C(=O)NC(C)(C)C(=O)N[C@@H](Cc1ccccc1)C(=O)N[C@H]1CSSC[C@@H](C(=O)N[C@H](C(=O)N[C@H](C(N)=O)[C@@H](C)O)C(C)(C)C)NC(=O)CNC(=O)C(C)(C)NC(=O)[C@H](CCCNC(=N)N)NC(=O)[C@H](CCCCN)NC1=O)[C@@H](C)O [PSM-0479, Ac-Thr-Aib-Phe-[Cys-Lys-Arg-Aib-Gly-Cys]-Tle-Thr-NH2] (Ac-T[Aib]FCKR[Aib]GC[Tle]T-NH2; disulfide 4-9)
1260 to 3160	126 to 501	CC(C)C[C@H](NC(=O)[C@@H]1CSSC[C@H](NC(=O)[C@H](Cc2ccccc2)NC(=O)[C@H](C)NC(=O)[C@@H](NC(=O)CCC(=O)NCCCOCCOCCOCCCNC(=O)CN2CCN(CC(=O)O)CCN(CC(=O)O)CCN(CC(=O)O)CC2)[C@@H](C)O)C(=O)N[C@@H](CCCCN)C(=O)N[C@@H](CCCNC(=N)N)C(=O)N[C@@H](C)C(=O)N[C@@H](CC(N)=O)C(=O)N1)C(N)=O [PSM-0480, DOTA-Ttds-Thr-Ala-Phe-[Cys-Lys-Arg-Ala-Asn-Cys]-Lou-NH2] ({X3-Suc}-TAFCKRANCL-NH2; disulfide 4-9)

SMILES	IC50 [1] [nM]	Kd [2] [nM]
CC(=O)N[C@H](C(=O)NC(C)(C)C(=O)N[C@@H](Cc1ccccc1)C(=O)N[C@H]1CSSC[C@@H](C(=O)N[C@H](C(=O)N[C@H](C(=O)Nc2ccc(C(=O)N[C@H](CCCCNC(=O)CN3CCN(CC(=O)O)CCN(CC(=O)O)CCN(CC(=O)O)CC3)C(N)=O)cc2)[C@@H](C)O)C(C)(C)C)NC(=O)[C@H](CC(N)=O)NC(=O)C(C)(C)NC(=O)[C@H](CCCNC(=N)N)NC(=O)[C@H](CCCCN)NC1=O)[C@@H](C)O [PSM-0471, Ac-Thr-Aib-Phe-[Cys-Lys-Arg-Aib-Asn-Cys]-Tle-Thr-Pab-lys(DOTA)-NH2] (Ac-T[Aib]FCKR[Aib]NC[Tle]T[4Abz][dK](DOTA)-NH2; disulfide 4-9)	< 200	< 12.6
